#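 Exposure lasted 48 hours, with cells grown in 96-well plates and compounds tested at five concentrations. At the TGI there is no net growth.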
# Legend:
# Assay in all cases: NCI anticancer screen, dose series, 48 h
# [1] = test system: HOP-62 NSCLC
# [2] = test system: SF-268 CNS
# [3] = test system: NCI-H522 lung
# [4] = test system: OVCAR-4 ovarian
# [5] = test system: ACHN renal
# [6] = test system: UACC-257 melanoma
# [7] = test system: A549 NSCLC
# [8] = test system: RXF 393 renal
# [9] = test system: SK-MEL-5 melanoma
# [10] = test system: OVCAR-5 ovarian
# [11] = test system: SK-OV-3 ovarian
# [12] = test system: UACC-62 melanoma
# [13] = test system: A498 renal
# [14] = test system: HT29 colon
# [15] = test system: COLO 205 colon
# [16] = test system: IGROV1 ovarian
# [17] = test system: RPMI-8226 leukemia
# [18] = test system: UO-31 renal
# [19] = test system: BT-549 breast
# [20] = test system: SNB-19 CNS
# [21] = test system: OVCAR-8 ovarian
# [22] = test system: LOX IMVI melanoma
# [23] = test system: CAKI-1 renal
# [24] = test system: MDA-MB-231 breast
# [25] = test system: NCI-H23 lung
# [26] = test system: HCC-2998 colon
# [27] = test system: SK-MEL-28 melanoma
# [28] = test system: NCI-H460 lung
# [29] = test system: EKVX NSCLC
# [30] = test system: NCI-H226 lung
# [31] = test system: HOP-92 NSCLC
# [32] = test system: PC-3 prostate
# [33] = test system: OVCAR-3 ovarian
# [34] = test system: SN12C renal
# [35] = test system: MOLT-4 leukemia
# [36] = test system: NCI/ADR-RES ovarian
# [37] = test system: K-562 leukemia
# [38] = test system: MCF7 breast
# [39] = test system: MDA-MB-435
# [40] = test system: SF-539 CNS
# [41] = test system: HCT-116 colon
# [42] = test system: KM12 colon
# [43] = test system: HS 578T breast
# [44] = test system: SW-620 colon
# [45] = test system: U251 CNS
# [46] = test system: HL-60(TB) leukemia
# [47] = test system: SF-295 CNS
# [48] = test system: TK-10 renal
# [49] = test system: 786-0 renal
# [50] = test system: MDA-N
# [51] = test system: SR leukemia
# [52] = test system: MALME-3M melanoma
# [53] = test system: T-47D breast
# [54] = test system: HCT-15 colon
# [55] = test system: M14 melanoma
# [56] = test system: SK-MEL-2 melanoma
# [57] = test system: SNB-75 CNS
# [58] = test system: CCRF-CEM leukemia
# [59] = test system: DU-145 prostate
structure (smiles),measurement,setting,value
CCCCCCCCCC(=O)N[C@@H](c1ccco1)[C@@H](O)C(=O)O[C@H]1C[C@@]2(O)[C@@H](OC(=O)c3ccccc3)[C@@H]3[C@]4(OC(C)=O)CO[C@@H]4C[C@H](O)[C@@]3(C)C(=O)[C@H](OC(C)=O)C(=C1C)C2(C)C,TGI,[1],1.68 µM
same,TGI,[2],24.5 µM
same,TGI,[3],0.631 µM
same,TGI,[4],> 24.7 µM
same,TGI,[5],> 22.7 µM
same,TGI,[6],11.7 µM
same,TGI,[7],> 50 µM
same,TGI,[8],0.898 µM
same,TGI,[9],2.25 µM
same,TGI,[10],0.151 µM
same,TGI,[11],> 18.7 µM
same,TGI,[12],9.53 µM
same,TGI,[13],10.3 µM
same,TGI,[14],7.1 µM
same,TGI,[15],0.0335 µM
same,TGI,[16],16.1 µM
same,TGI,[17],0.0483 µM
same,TGI,[18],12.7 µM
same,TGI,[19],1.07 µM
same,TGI,[20],> 30.5 µM
same,TGI,[21],11 µM
same,TGI,[22],7.74 µM
same,TGI,[23],> 38.9 µM
same,TGI,[24],4.47 µM
same,TGI,[25],11.4 µM
same,TGI,[26],0.736 µM
same,TGI,[27],14.8 µM
same,TGI,[28],8.9 µM
same,TGI,[29],> 50 µM
same,TGI,[30],9.53 µM
same,TGI,[31],21.2 µM
same,TGI,[32],> 35.1 µM
same,TGI,[33],3.48 µM
same,TGI,[34],11.4 µM
same,TGI,[35],2.3 µM
same,TGI,[36],20.5 µM
same,TGI,[37],> 50 µM
same,TGI,[38],1.81 µM
same,TGI,[39],0.0345 µM
same,TGI,[40],0.17 µM
same,TGI,[41],1.13 µM
same,TGI,[42],8.44 µM
same,TGI,[43],0.0857 µM
same,TGI,[44],> 50 µM
same,TGI,[45],2.34 µM
same,TGI,[46],0.0292 µM
same,TGI,[47],0.211 µM
same,TGI,[48],9.22 µM
same,TGI,[49],7.95 µM
same,TGI,[50],0.00909 µM
same,TGI,[51],10 µM
same,TGI,[52],12.4 µM
same,TGI,[53],1.42 µM
same,TGI,[54],8.73 µM
CS(=O)(=O)c1nc(-c2cc3c(c(S(C)(=O)=O)n2)CCC3)cc2c1CCCC2,TGI,[1],78.6 µM
same,TGI,[2],24.4 µM
same,TGI,[3],45.9 µM
same,TGI,[4],> 100 µM
same,TGI,[5],> 100 µM
same,TGI,[6],> 100 µM
same,TGI,[55],> 100 µM
same,TGI,[7],> 100 µM
same,TGI,[8],40.5 µM
same,TGI,[9],> 100 µM
same,TGI,[10],> 100 µM
same,TGI,[11],77.7 µM
same,TGI,[12],29.6 µM
same,TGI,[14],> 100 µM
same,TGI,[15],> 100 µM
same,TGI,[16],34.8 µM
same,TGI,[56],59.3 µM
same,TGI,[17],> 100 µM
same,TGI,[18],> 100 µM
same,TGI,[19],83.8 µM
same,TGI,[20],> 100 µM
same,TGI,[21],57.9 µM
same,TGI,[22],49.8 µM
same,TGI,[23],38 µM
same,TGI,[24],> 100 µM
same,TGI,[25],> 100 µM
same,TGI,[26],> 100 µM
same,TGI,[27],> 100 µM
same,TGI,[29],> 100 µM
same,TGI,[30],> 100 µM
same,TGI,[32],> 100 µM
same,TGI,[33],> 100 µM
same,TGI,[34],> 100 µM
same,TGI,[57],23.4 µM
same,TGI,[35],> 100 µM
same,TGI,[36],> 100 µM
same,TGI,[58],> 100 µM
same,TGI,[37],> 100 µM
same,TGI,[39],> 100 µM
same,TGI,[40],> 100 µM
same,TGI,[41],> 100 µM
same,TGI,[42],> 100 µM
same,TGI,[43],14.1 µM
same,TGI,[44],> 100 µM
same,TGI,[45],> 100 µM
same,TGI,[46],> 100 µM
same,TGI,[47],> 100 µM
same,TGI,[48],> 100 µM
same,TGI,[49],> 100 µM
same,TGI,[59],> 100 µM
same,TGI,[50],> 100 µM
same,TGI,[54],> 100 µM
O=c1[nH]c(=O)n(COCCO)c2ccsc12,TGI,[1],> 100 µM
same,TGI,[2],> 100 µM
same,TGI,[3],> 100 µM
same,TGI,[4],> 100 µM
same,TGI,[5],> 100 µM
same,TGI,[6],> 100 µM
same,TGI,[55],> 100 µM
same,TGI,[7],> 100 µM
same,TGI,[8],> 100 µM
same,TGI,[9],> 100 µM
same,TGI,[10],> 100 µM
same,TGI,[13],> 100 µM
same,TGI,[14],> 100 µM
same,TGI,[15],> 100 µM
same,TGI,[16],> 100 µM
same,TGI,[56],> 100 µM
same,TGI,[17],> 100 µM
same,TGI,[18],> 100 µM
same,TGI,[19],> 100 µM
same,TGI,[20],> 100 µM
same,TGI,[21],> 100 µM
same,TGI,[22],> 100 µM
same,TGI,[23],> 100 µM
same,TGI,[24],> 100 µM
same,TGI,[25],> 100 µM
same,TGI,[26],> 100 µM
same,TGI,[27],> 100 µM
same,TGI,[28],> 100 µM
same,TGI,[29],> 100 µM
same,TGI,[30],> 100 µM
same,TGI,[31],> 100 µM
same,TGI,[32],> 100 µM
same,TGI,[33],> 100 µM
same,TGI,[34],> 100 µM
same,TGI,[57],> 100 µM
same,TGI,[35],> 100 µM
same,TGI,[36],> 100 µM
same,TGI,[58],> 100 µM
same,TGI,[37],> 100 µM
same,TGI,[38],> 100 µM
same,TGI,[39],> 100 µM
same,TGI,[40],> 100 µM
same,TGI,[41],> 100 µM
same,TGI,[42],> 100 µM
same,TGI,[43],> 100 µM
same,TGI,[44],> 100 µM
same,TGI,[45],> 100 µM
same,TGI,[46],> 100 µM
same,TGI,[47],> 100 µM
same,TGI,[48],> 100 µM
same,TGI,[49],> 100 µM
same,TGI,[59],> 100 µM
same,TGI,[50],> 100 µM
same,TGI,[51],> 100 µM
same,TGI,[52],> 100 µM
same,TGI,[54],> 100 µM
CO[C@H]1O[C@@H]2CO[C@@H](c3ccccc3)O[C@H]2[C@@H]2C/C=C\CCC[C@@]12O,TGI,[1],35.5 µM
same,TGI,[2],43.3 µM
same,TGI,[3],43.4 µM
same,TGI,[4],> 100 µM
same,TGI,[5],38.1 µM
same,TGI,[6],43.2 µM
same,TGI,[55],45.9 µM
same,TGI,[7],> 100 µM
same,TGI,[8],33.2 µM
same,TGI,[9],31.7 µM
same,TGI,[10],52.5 µM
same,TGI,[11],99.7 µM
same,TGI,[12],30.7 µM
same,TGI,[13],29 µM
same,TGI,[14],40.3 µM
same,TGI,[15],33.6 µM
same,TGI,[16],96.2 µM
same,TGI,[56],34.2 µM
same,TGI,[17],44.2 µM
same,TGI,[18],> 100 µM
same,TGI,[19],43.8 µM
same,TGI,[20],> 100 µM
same,TGI,[21],> 100 µM
same,TGI,[22],32.4 µM
same,TGI,[23],> 100 µM
same,TGI,[24],68.4 µM
same,TGI,[25],52.7 µM
same,TGI,[26],26.4 µM
same,TGI,[27],89.1 µM
same,TGI,[28],33 µM
same,TGI,[29],45.8 µM
same,TGI,[30],40 µM
same,TGI,[31],43.7 µM
same,TGI,[32],77.1 µM
same,TGI,[33],30.5 µM
same,TGI,[34],32.5 µM
same,TGI,[57],> 100 µM
same,TGI,[35],42.2 µM
same,TGI,[36],88.3 µM
same,TGI,[58],> 100 µM
same,TGI,[37],51.1 µM
same,TGI,[38],44.9 µM
same,TGI,[39],52.9 µM
same,TGI,[41],30.9 µM
same,TGI,[42],54.9 µM
same,TGI,[44],81.6 µM
same,TGI,[45],40.2 µM
same,TGI,[46],51.2 µM
same,TGI,[47],42 µM
same,TGI,[48],> 100 µM
same,TGI,[49],33 µM
same,TGI,[59],51.8 µM
same,TGI,[50],60.8 µM
same,TGI,[51],49.4 µM
same,TGI,[53],> 100 µM
same,TGI,[54],76.5 µM
